Measured values taken from publication PMC7986777 (Chemistry (Weinheim an Der Bergstrasse, Germany), 2021).

What was measured:
Assay in all cases: fluorescent cephalosporin
Type in all cases: biochemical
[1] = target: NDM-1 (Klebsiella pneumoniae, UniProt C7C422)
[2] = target: VIM-2 (Pseudomonas aeruginosa, UniProt Q9K2N0); conditions: read-out: VIM-2 IC50; […] min pre-incubation, FC5 substrate, HEPES
[3] = target: IMP-28 (Klebsiella oxytoca, UniProt G4WB26); conditions: read-out: IMP-28 IC50; […] min pre-incubation, FC5 substrate, HEPES
Chain of IMP-28 (G4WB26 20-246): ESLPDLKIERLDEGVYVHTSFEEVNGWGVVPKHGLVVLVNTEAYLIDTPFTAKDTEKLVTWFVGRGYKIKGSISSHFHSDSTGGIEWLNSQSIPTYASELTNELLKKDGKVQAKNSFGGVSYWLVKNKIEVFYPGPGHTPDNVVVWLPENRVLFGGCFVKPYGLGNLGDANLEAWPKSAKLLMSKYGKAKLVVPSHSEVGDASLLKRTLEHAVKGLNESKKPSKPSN

Chain of NDM-1 (C7C422 29-270, looked up): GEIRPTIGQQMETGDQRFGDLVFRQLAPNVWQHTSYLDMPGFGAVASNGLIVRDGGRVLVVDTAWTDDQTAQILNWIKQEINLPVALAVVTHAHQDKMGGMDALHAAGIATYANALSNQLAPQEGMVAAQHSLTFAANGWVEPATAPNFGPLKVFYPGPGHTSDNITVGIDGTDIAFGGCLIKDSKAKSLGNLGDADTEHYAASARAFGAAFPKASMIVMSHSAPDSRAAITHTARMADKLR

Structure (SMILES)	IC50 [1] [nM]	IC50 [2] [µM]	IC50 [3] [µM]
Sc1cccc2cccnc12 [8-TQ]	2990 ± 580	4.2 ± 1	4.2 ± 0.11
O=C(O)c1cccc(C(=O)O)n1 [DPA]		4.34 ± 0.67	9.65 ± 0.62
O=C(Cc1ccccc1)N[C@@H]1C(=O)N2C(C(=O)O)=C(CSc3cccc4cccnc34)C[S+]([O-])[C@H]12 (stereo partly shown) [compound 7]	2180 ± 140	6.35 ± 0.56	71.9 ± 3.05
O=C(Cc1ccccc1)N[C@@H]1C(=O)N2C(C(=O)O)=C(COC(=O)c3cccc(C(=O)O)n3)CS[C@H]12 [compound 13]	2130 ± 70	1.87 ± 0.1	7.39 ± 0.1
O=C(Cc1ccccc1)N[C@@H]1C(=O)N2C(C(=O)O)=C(COC(=O)c3cccc(C(=O)O)n3)CS(=O)(=O)[C@H]12 [compound 15]	18800 ± 1220	10.8 ± 0.6	61.9 ± 1.82

The next lines start with the values.

IC50 [1] [nM]	IC50 [2] [µM]	IC50 [3] [µM]	Structure (SMILES)
	3.64 ± 0.27	10.3 ± 0.22	O=C(Cc1ccccc1)N[C@@H]1C(=O)N2C(C(=O)O)=C(CSc3cccc4cccnc34)CS[C@H]12 [compound 6]
8470 ± 1020	4.17 ± 0.65	46.2 ± 3.13	O=C(Cc1ccccc1)N[C@@H]1C(=O)N2C(C(=O)O)=C(CSc3cccc4cccnc34)CS(=O)(=O)[C@H]12 [compound 8]
299 ± 5	0.756 ± 0.056	46.7 ± 2.76	O=C(Cc1ccccc1)N[C@@H]1C(=O)N2C(C(=O)O)=C(COC(=O)c3cccc(C(=O)O)n3)C[S+]([O-])[C@H]12 (stereo partly shown) [compound 14]
